From ChEMBL document CHEMBL3621121, “Modeling, synthesis and NMR characterization of novel chimera compounds targeting STAT3” (Medchemcomm, 2014)

Columns and labels:
[1] = biological target: Signal transducer and activator of transcription 3 (Homo sapiens) (UniProt P40763); assay: Inhibition of STAT3 in human HCT116 cells at 10 uM after 24 hrs by firefly and renilla dual luciferase assay; type: cell-based; conditions: HCT-116
[2] = biological target: Signal transducer and activator of transcription 3 (Homo sapiens) (UniProt P40763); assay: Inhibition of STAT3 in human HCT116 cells at 50 uM after 24 hrs by firefly and renilla dual luciferase assay; type: cell-based; conditions: HCT-116
[3] = biological target: Signal transducer and activator of transcription 3 (Homo sapiens) (UniProt P40763); assay: Inhibition of SH2 domain of STAT3 (unknown origin) using (FITC)-GpYLPQTV after 90 mins by AlphaScreen bead-based nonradioactive assay

Sequence of Signal transducer and activator of transcription 3 (Homo sapiens) (P40763 whole entry, the tested form may be a part): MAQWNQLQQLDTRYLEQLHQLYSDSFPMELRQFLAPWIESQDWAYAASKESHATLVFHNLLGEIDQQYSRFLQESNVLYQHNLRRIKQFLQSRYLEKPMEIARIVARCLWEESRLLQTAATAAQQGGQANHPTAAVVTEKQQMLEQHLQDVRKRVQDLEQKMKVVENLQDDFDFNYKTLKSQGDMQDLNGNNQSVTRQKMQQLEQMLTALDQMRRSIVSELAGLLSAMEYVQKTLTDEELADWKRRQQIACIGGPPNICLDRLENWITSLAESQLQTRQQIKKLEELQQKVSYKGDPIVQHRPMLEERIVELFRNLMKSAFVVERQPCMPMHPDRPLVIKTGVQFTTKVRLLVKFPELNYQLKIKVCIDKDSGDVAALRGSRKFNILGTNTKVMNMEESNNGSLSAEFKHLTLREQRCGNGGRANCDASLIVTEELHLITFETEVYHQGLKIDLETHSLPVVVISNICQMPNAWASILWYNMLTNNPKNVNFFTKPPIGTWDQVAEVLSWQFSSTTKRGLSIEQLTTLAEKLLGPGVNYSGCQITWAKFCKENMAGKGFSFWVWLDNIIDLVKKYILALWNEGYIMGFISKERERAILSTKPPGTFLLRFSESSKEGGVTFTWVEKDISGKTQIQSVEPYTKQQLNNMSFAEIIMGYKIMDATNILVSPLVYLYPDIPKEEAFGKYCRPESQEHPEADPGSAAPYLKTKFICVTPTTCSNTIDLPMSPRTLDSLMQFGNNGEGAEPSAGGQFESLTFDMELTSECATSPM

Row | Compound | inhibition [1] | inhibition [2] | inhibition [3]
1 | O=C(Nc1ccc(C(F)(F)F)cc1)C1Cc2cc(=O)[nH]nc2-c2ccccc21 (racemic) | 2% | 7% | 
2 | O=C1CC2CC(C(=O)Nc3ccc(C(F)(F)F)cc3)c3ccccc3C2=NN1 (racemic; 1) | -3% | 6% | 
3 | O=C1CC2CC(C(=O)Nc3ccc(C(F)(F)F)cc3)c3ccccc3C2=NN1 (single isomer, unassigned; (+)-2a) | -8% | 12% | 
4 | C[C@H]1COC2=C1C(=O)C(=O)c1c2ccc2c1CCCC2(C)C | 78% | 85% | 
5 | O=C1CC2CC(C(=O)Nc3ccc(C(F)(F)F)cc3)c3ccccc3C2=NN1 (single isomer, unassigned; (-)-2b) | 1% | 16% | 
6 | O=C1CC2CC(C(=O)Nc3ccc(C(F)(F)F)cc3)c3ccccc3C2=NN1 (single isomer, unassigned; (+)-1) | 9% | 35% | < 5%
7 | O=C1CC2CC(C(=O)Nc3ccc(C(F)(F)F)cc3)c3ccccc3C2=NN1 (single isomer, unassigned; (-)-1) | 9% | 14% | 
8 | O=C1CC2CC(C(=O)Nc3ccc(C(F)(F)F)cc3)c3ccccc3C2=NN1 (racemic; 2) | -6% | 3% | 
9 | O=C(Nc1ccc(C(F)(F)F)cc1)C1Cc2cc(=O)[nH]nc2-c2ccccc21 (stereo in doubt; (+)-3a) | -2% | 24% | 
10 | O=C(Nc1ccc(C(F)(F)F)cc1)C1Cc2cc(=O)[nH]nc2-c2ccccc21 (single isomer, unassigned; (-)) | 2% | 30% | 
